What follows are molecules tested against T1, recombinant glucosyltransferase domain of C. difficile Toxin B/TcdB (Clostridioides difficile, UniProt P18177) (assay: biochemical).
T1 construct: 6-His (C); purchased R&D Systems 6246-GT
T1 sequence (P18177 1-543): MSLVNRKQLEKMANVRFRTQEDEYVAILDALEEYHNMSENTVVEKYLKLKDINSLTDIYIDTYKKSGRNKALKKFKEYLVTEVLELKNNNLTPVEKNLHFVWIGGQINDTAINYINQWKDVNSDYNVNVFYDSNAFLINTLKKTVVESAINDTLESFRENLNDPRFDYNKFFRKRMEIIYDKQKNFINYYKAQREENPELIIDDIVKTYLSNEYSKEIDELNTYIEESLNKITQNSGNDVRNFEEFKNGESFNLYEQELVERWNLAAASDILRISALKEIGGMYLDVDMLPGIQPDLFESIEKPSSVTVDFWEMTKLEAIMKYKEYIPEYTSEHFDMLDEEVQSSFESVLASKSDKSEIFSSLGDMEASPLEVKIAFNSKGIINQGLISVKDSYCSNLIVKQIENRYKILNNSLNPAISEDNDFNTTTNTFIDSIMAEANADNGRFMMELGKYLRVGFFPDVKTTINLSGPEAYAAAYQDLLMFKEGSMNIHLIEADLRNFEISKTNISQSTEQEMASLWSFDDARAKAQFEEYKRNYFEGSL
`Cc1noc(C)c1-c1cc(CN2C(=O)c3ccc(Cl)cc3NC(=O)[C@H]2Cc2ccccn2)ccc1C(=O)O` [Example 8t, 4-(((R)-8-chloro-2,5-dioxo-3-(pyridin-2-ylmethyl)-2,3-dihydro-1H-benzo[e][1,4]diazepin-4(5H)-yl)methyl)-2-(3,5-dimethylisoxazol-4-yl)benzoic acid] was tested, and the IC50 was 1000 to 10000 nM. For `Cn1cc(-c2cc(CN3C(=O)c4ccc(Cl)cc4NC(=O)[C@H]3Cc3ccccn3)ccc2C(=O)O)cn1` [Example 8u, (R)-4-((8-chloro-2,5-dioxo-3-(pyridin-2-ylmethyl)-2,3-dihydro-1H-benzo[e][1,4]diazepin-4(5H)-yl)methyl)-2-(1-methyl-1H-pyrazol-4-yl)benzoic acid], the IC50 was 1000 to 10000 nM. Work on `Cc1ccc(NC(=O)c2ccc(CN3C(=O)c4ccc(Cl)cc4NC(=O)[C@H]3CCO)cc2)nc1` [Example 9a, (R)-4-((8-Chloro-3-(2-hydroxyethyl)-2,5-dioxo-2,3-dihydro-1H-benzo[e][1,4]diazepin-4(5H)-yl)methyl)-N-(5-methylpyridin-2-yl)benzamide] yielded an IC50 of 100 to 999 nM. `Cc1ccc(NC(=O)c2ccc(CN3C(=O)c4ccc(Cl)cc4NC(=O)[C@H]3CCN3CCOCC3)cc2)nc1` [Example 10a, (R)-4-((8-Chloro-3-(2-morpholinoethyl)-2,5-dioxo-2,3-dihydro-1H-benzo[e][1,4]diazepin-4(5H)-yl)methyl)-N-(5-methylpyridin-2-yl)benzamide] gave an IC50 of 1000 to 10000 nM. With `Cc1ccc(NC(=O)c2ccc(CN3C(=O)c4ccc(Cl)cc4NC(=O)[C@H]3CCN3CCCCC3)cc2)nc1` [Example 10b, (R)-4-((8-chloro-2,5-dioxo-3-(2-(piperidin-1-yl)ethyl)-2,3-dihydro-1H-benzo[e][1,4]diazepin-4(5H)-yl)methyl)-N-(5-methylpyridin-2-yl)benzamide] the IC50 was 10000 to 35000 nM. With `Cc1ccc(NC(=O)c2ccc(CN3C(=O)c4ccc(Cl)cc4NC(=O)[C@H]3CCN3CCC(O)CC3)cc2)nc1` [Example 10c, (R)-4-((8-chloro-3-(2-(4-hydroxypiperidin-1-yl)ethyl)-2,5-dioxo-2,3-dihydro-1H-benzo[e][1,4]diazepin-4(5H)-yl)methyl)-N-(5-methylpyridin-2-yl)benzamide] the IC50 was 1000 to 10000 nM. With `Cc1ccc(NC(=O)c2ccc(CN3C(=O)c4ccc(Cl)cc4NC(=O)[C@H]3CCN3CCN(C)CC3)cc2)nc1` [Example 10d, (R)-4-((8-chloro-3-(2-(4-methylpiperazin-1-yl)ethyl)-2,5-dioxo-2,3-dihydro-1H-benzo[e][1,4]diazepin-4(5H)-yl)methyl)-N-(5-methylpyridin-2-yl)benzamide] the IC50 was 1000 to 10000 nM. `Cc1ccc(NC(=O)c2ccc(CN3C(=O)c4ccc(Cl)cc4NC(=O)[C@H]3CCN3CCNC(=O)C3)cc2)nc1` [Example 10e] was tested, and the IC50 was 1000 to 10000 nM. `Cc1ccc(NC(=O)c2ccc(CN3C(=O)c4ccc(Cl)cc4NC(=O)[C@H]3CCN(C)C)cc2)nc1` [Example 10f, (R)-4-((8-chloro-3-(2-(dimethylamino)ethyl)-2,5-dioxo-2,3-dihydro-1H-benzo[e][1,4]diazepin-4(5H)-yl)methyl)-N-(5-methylpyridin-2-yl)benzamide] gave an IC50 of 10000 to 35000 nM. `O=C1Nc2cc(Cl)ccc2C(=O)N(C[C@H]2CC[C@H](C(=O)c3ccccn3)CC2)[C@@H]1Cc1ccccn1` [Example 11c, (R)-8-chloro-4-((4-picolinoylcyclohexyl)methyl)-3-(pyridin-2-ylmethyl)-3,4-dihydro-1H-benzo[e][1,4]diazepine-2,5-dione] showed an IC50 of under 100 nM. In the case of `Cc1ccnc(C(=O)c2ccc(CN3C(=O)c4ccc(Cl)cc4NC(=O)[C@H]3Cc3ccccn3)cc2)c1` [Example 11d, (R)-8-chloro-4-(4-(4-methylpicolinoyl)benzyl)-3-(pyridin-2-ylmethyl)-3,4-dihydro-1H-benzo[e][1,4]diazepine-2,5-dione], the IC50 is reported as under 100 nM. In the case of `Cc1cccc(C(=O)c2ccc(CN3C(=O)c4ccc(Cl)cc4NC(=O)[C@H]3Cc3ccccn3)cc2)n1` [Example 11e, (R)-8-chloro-4-(4-(6-methylpicolimoyl)benzyl)-3-(pyridin-2-ylmethyl)-3,4-dihydro-1H-benzo[e][1,4]diazepine-2,5-dione], the IC50 is reported as 100 to 999 nM.
